26 compounds from patent US6020334A, “Piperazinones, their production and use” (Takeda Chemical Industries, Ltd., priority 1995, dated 2000) can be followed below.

In data set [1] the test system is platelet aggregation by ADP. The data set is described as follows: Platelet aggregation in vitro (inhibition of ADP-induced aggregation of guinea pig PRP, Born's method). The class given is cell-based, guinea pigs. To be noted: Cavia porcellus, ADP 0.6-1 μM, 37° C. The protocol:
Determination of Platelet Aggregation in Vitro
Blood was collected from abdominal aorta of guinea pigs under anesthesia with pentobarbital (20 mg/kg, i.p.) using sodium citrate as an anticoagulant (final concentration: 0.315%). The sodium citrate--supplemented blood was centrifuged at 950 rpm for 10 minutes and 2,000 rpm for 10 minutes respectively at room temperature to obtain platelet rich plasma (PRP) and platelet poor plasma (PPP). The number of platelet was counted an automatic platelet counter (Sysmex E2500, Toaiyo-denshi). PRP was diluted with PPP to adjust the number of platelets to be 500,000/μl. Platelet aggregation was measured as follows, in accordance with Born's method (Nature 194: 927, 1962), using an 8-channel aggregometer (NBS HEMA TRACER VI, Niko Bioscience Inc.): The PRP (250 μl) was incubated at 37° C. for 2 minutes, to which was then added 25 μl of a test drug solution. Two minutes later, 25 μl of an agent (ADP) for causing agglutination. The effect of the test drug was shown by the inhibition rate of the maximum aggregation rate of the test group against that of the control group. ADP was used in the minimum concentration (0.6-1 μM) capable of obtaining maximum aggregation.

Data set [2] relates to ex vivo platelet aggregation. The data set is described as follows: Ex vivo platelet aggregation inhibitory action (PRP of infused guinea pigs, ADP). The class given is in vivo. Particulars: continuous i.v. infusion for 90 minutes, ADP 0.5 to 1 μM. How it is done: (§1) Bleeding Time in Guinea Pigs and Determination of Ex Vivo Platelet Aggregation Inhibitory Action
(§2) Male Hartley guinea pigs (body weight: about 400 g) were employed. These animals were intravenously infused continuously, under anesthesia with pentobarbital, with a physiological saline solution or receptor-antagonistdissolved in the solution at a dose of 10 μl/kg/min.
After 90 minutes of the continuous infusion, blood was collected from abdominal aorta using sodium citrate (whole blood:3.15% citric acid solution=9:1 by volume). […]
Platelet aggregation was measured by using an 8-channel photo-extinction type platelet aggregometer (NBS/HEMA TRACER 801, Niko Bioscience). […] The PRP was set in the aggregometer and incubated for two minutes at 37° C., to which was added 20 μl of ADP (0.5 to 1 μM), and the changes of transmittance were recorded. The difference of PRP and PPP in photo-extinction was assumed 100%, and, with the maximum photo-extinction rates, the maximum aggregation rates (%) were determined. The effects of the drugs were determined by comparing the maximum aggregation rates (%) of animals continuously infused with a physiological saline solution with those of animals continuously infused with receptor antagonist.

The nature of data set [3]: Bleeding time in guinea pigs (continuous intravenous infusion, Simplate R incision). It is filed as in vivo. Particulars: continuous i.v. infusion for 90 minutes. How it is done: as §1, §2
After the continuous infusion for 90 minutes, the thigh of each animal was applied with a rubber cuff and charged with 40 mmHg, then given an incised sound with Simplate R (Organon Teknika). Thereafter, at 30 sec. each interval, blood was absorbed into a filter paper. The time until no more blood was absorbed into the filter paper was measured. The bleeding time of normal five guinea pigs was about 276 sec.

In general, IC50 refers to the point on the concentration scale where inhibition reaches its midpoint.

In data set [1], `N=C(N)c1ccc(C(=O)NCC(=O)N2CCN(CC(=O)O)C(=O)[C@@H]2CCCN)cc1` [compound 1] returned a half-inhibitory concentration (IC50) of 520 nM.

On to `N=C(N)c1ccc(C(=O)NCCC[C@H]2C(=O)N(CC(=O)O)CCN2C(=O)CNC(=O)c2ccc(C(=N)N)cc2)cc1` [compound 2], for which, in data set [2] (2 μg/kg/min), the “Inhibitory rate (ex vivo platelet aggregation inhibition)” value turned out to be 100%. For the same compound, the IC50 in data set [1] stood at 37 nM. This compound displayed a Bleeding time in data set [3] (2 μg/kg/min) of 308 ± 33 s.

In data set [1], `COc1ccc(C[C@H](NC(=O)c2ccc(C(=N)N)cc2)C(=O)N2CCN(CC(=O)O)C(=O)[C@@H]2CCCN)cc1` [compound 5] came in with an IC50 of 16 nM.

In data set [1], `COc1ccc(C[C@H](NC(=O)c2ccc(C(=N)N)cc2)C(=O)N2CCN(CC(=O)O)C(=O)[C@@H]2CCCNC(=O)c2ccc(C(=N)N)cc2)cc1` [compound 6] showed an IC50 of 20 nM.

Compound `COc1ccc(C[C@H](NC(=O)c2ccc(C(=N)N)cc2)C(=O)N2CCN(CC(=O)O)C(=O)[C@@H]2CCCCN)cc1` [compound 7] gave an IC50 in data set [1] of 19 nM.

`COc1ccc(C[C@H](NC(=O)c2ccc(C(=N)N)cc2)C(=O)N2CCN(CC(=O)O)C(=O)[C@@H]2CCCCNC(=O)c2ccc(C(=N)N)cc2)cc1` [compound 8] gave an IC50 in data set [1] of 12 nM.

Take `N=C(N)c1ccc(C(=O)NCC(=O)N2CCN(CC(=O)O)C(=O)[C@@H]2CCCNC(=O)CCCCCN)cc1` [compound 9]: the IC50 in data set [1] was determined as 180 nM.

Take `N=C(N)c1ccc(C(=O)NCC(=O)N2CCN(CC(=O)O)C(=O)[C@@H]2CCCNC(=O)CCCCN)cc1` [compound 10]: inhibition in data set [1] was half-maximal at 200 nM (IC50).

`N=C(N)c1ccc(C(=O)NCC(=O)N2CCN(CC(=O)O)C(=O)[C@@H]2CCCNC(=O)CCCN)cc1` [compound 11] showed an IC50 in data set [1] of 230 nM.

With `COc1ccc(C[C@H](NC(=O)c2ccc(C(=N)N)cc2)C(=O)N2CCN(CC(=O)O)C(=O)[C@@H]2CCCCNC(=N)N)cc1` [compound 12], half-maximal inhibition in data set [1] (IC50) was put at 25 nM.

In data set [1], `N=C(N)NCCCC(=O)NCCC[C@H]1C(=O)N(CC(=O)O)CCN1C(=O)CNC(=O)c1ccc(C(=N)N)cc1` [compound 13] registered an IC50 of 110 nM.

`N=C(N)Nc1ccc(C(=O)NCCC[C@H]2C(=O)N(CC(=O)O)CCN2C(=O)CNC(=O)c2ccc(NC(=N)N)cc2)cc1` [compound 15]: the “Inhibitory rate (ex vivo platelet aggregation inhibition)” value in data set [2] (3 μg/kg/min) is recorded as 100%. In data set [1], this compound gave an IC50 of 51 nM. The compound also returned a Bleeding time in data set [3] (3 μg/kg/min) of 250 ± 26 s.

As for `N=C(N)Nc1ccc(C(=O)NCC[C@H]2C(=O)N(CC(=O)O)CCN2C(=O)CNC(=O)c2ccc(C(=N)N)cc2)cc1` [compound 16], the IC50 in data set [1] was found to be 44 nM.

In the case of `N=C(N)c1ccc(C(=O)NCC(=O)N2CCN(CC(=O)O)C(=O)[C@@H]2CN)cc1` [compound 17], half-maximal inhibition in data set [1] (IC50) was put at 240 nM.

Turning to `N=C(N)c1ccc(C(=O)NCC(=O)N2CCN(CC(=O)O)C(=O)[C@@H]2CNC(=O)c2ccc(C(=N)N)cc2)cc1` [compound 18], in data set [1], half-maximal inhibition (IC50) required 130 nM.

For `N=C(N)c1ccc(C(=O)NCC[C@H]2C(=O)N(CC(=O)O)CCN2C(=O)CNC(=O)c2ccc(C(=N)N)cc2)cc1` [compound 19], the IC50 in data set [1] is 180 nM.

In data set [1], `N=C(N)c1ccc(C(=O)NCCC[C@@H]2C(=O)N(CC(=O)O)CCN2C(=O)CNC(=O)c2ccc(C(=N)N)cc2)cc1` [compound 22] returned a half-inhibitory concentration (IC50) of 3800 nM.

With `N=C(N)Nc1ccc(C(=O)NCCC[C@H]2C(=O)N(CC(=O)O)CCN2C(=O)CNC(=O)c2ccc(C(=N)N)cc2)cc1` [compound 23], inhibition in data set [1] was half-maximal at 17 nM (IC50).

For `N=C(N)c1ccc(NC(=O)CC[C@H]2C(=O)N(CC(=O)O)CCN2C(=O)CNC(=O)c2ccc(C(=N)N)cc2)cc1` [compound 24], the IC50 in data set [1] is 250 nM.

In data set [1], `N=C(N)Cc1ccc(C(=O)NC[C@H]2C(=O)N(CC(=O)O)CCN2C(=O)CNC(=O)c2ccc(C(=N)N)cc2)cc1` [compound 25] yielded an IC50 of 54 nM.

In the case of `N=C(N)NCc1ccc(C(=O)NC[C@H]2C(=O)N(CC(=O)O)CCN2C(=O)CNC(=O)c2ccc(C(=N)N)cc2)cc1` [compound 26], in data set [1], the IC50 stood at 84 nM.

`COc1ccc(C[C@H](NC(=O)c2ccc(C(=N)N)cc2)C(=O)N2CCN(CC(=O)O)C(=O)[C@@H]2CCCNC(=O)CCCCCN)cc1` [compound 27] came in with an IC50 in data set [1] of 18 nM.

`COc1ccc(C[C@H](NC(=O)c2ccc(C(=N)N)cc2)C(=O)N2CCN(CC(=O)O)C(=O)[C@@H]2CCCCNC(=O)CN)cc1` [compound 28]: the IC50 in data set [1] was 19 nM.

For the compound `COC(=O)ON=C(N)c1ccc(C(=O)NCCC[C@H]2C(=O)N(CC(=O)O)CCN2C(=O)CNC(=O)c2ccc(C(N)=NOC(=O)OC)cc2)cc1` [compound 30], inhibition in data set [1] was half-maximal at 19000 nM (IC50).

The compound `COC(=O)ON=C(N)c1ccc(C(=O)NCCC[C@H]2C(=O)N(CC(=O)O)CCN2C(=O)CNC(=O)c2ccc(C(=N)N)cc2)cc1` [compound 31] yielded an IC50 in data set [1] of 190 nM.

In data set [1], `N=C(N)c1ccc(C(=O)NCCC[C@H]2C(=O)N(CC(=O)O)CCN2C(=O)CNC(=O)c2ccc(CCN)cc2)cc1` [compound 32] came in with an IC50 of 53 nM.
